“And” between values parts separate entries of the source, which are not always exact repeats. Equal entries are not always repeated. Numbers after ± are expanded uncertainties.
Key:
[1] = 101 kPa, Liquid; for speed of sound: Single path-length method
[2] = xn = mol fraction of the nth substance listed; conditions: 101 kPa, Liquid, x1 = 1; for speed of sound: Single path-length method

SMILES: COC(C)(C)C [2-methoxy-2-methylpropane]
- mass density ([1]; 288.15 K): 744.861 ± 0.55 kg/m3
- speed of sound ([1]; 288.15 K): 1083.4 ± 2.1 m/s and 1082.1 ± 2.1 m/s
- mass density ([1]; 290.65 K): 742.259 ± 0.56 kg/m3
- speed of sound ([1]; 290.65 K): 1071.6 ± 2.1 m/s and 1070.6 ± 2.1 m/s
- mass density ([1]; 293.15 K): 739.654 ± 0.56 kg/m3
- speed of sound ([1]; 293.15 K): 1060 ± 2.1 m/s and 1059.1 ± 2.1 m/s
- mass density ([1]; 295.65 K): 737.036 ± 0.56 kg/m3
- speed of sound ([1]; 295.65 K): 1048.5 ± 2.1 m/s and 1047.8 ± 2.1 m/s
- mass density ([1]; 298.15 K): 734.406 ± 0.57 kg/m3
- speed of sound ([1]; 298.15 K): 1036.9 ± 2.1 m/s and 1036.6 ± 2.1 m/s
- mass density ([1]; 300.65 K): 731.766 ± 0.57 kg/m3
- speed of sound ([1]; 300.65 K): 1025.4 ± 2.1 m/s
- mass density ([1]; 301.65 K): 732.643 ± 0.57 kg/m3
- speed of sound ([1]; 301.65 K): 1024.3 ± 2.2 m/s
- mass density ([1]; 303.15 K): 729.112 ± 0.58 kg/m3 and 729.99 ± 0.57 kg/m3
- speed of sound ([1]; 303.15 K): 1013.9 ± 2.1 m/s and 1014 ± 2.1 m/s and 1012.8 ± 2.1 m/s
- mass density ([1]; 305.65 K): 727.325 ± 0.58 kg/m3 and 726.444 ± 0.58 kg/m3
- speed of sound ([1]; 305.65 K): 1002.4 ± 2.1 m/s and 1002.7 ± 2.1 m/s and 1001.4 ± 2.1 m/s
- mass density ([1]; 308.15 K): 723.763 ± 0.58 kg/m3 and 724.645 ± 0.58 kg/m3
- speed of sound ([1]; 308.15 K): 990.99 ± 2.1 m/s and 991.34 ± 2.1 m/s and 989.9 ± 2.1 m/s
- mass density ([1]; 310.65 K): 721.069 ± 0.59 kg/m3 and 721.953 ± 0.59 kg/m3
- speed of sound ([1]; 310.65 K): 979.62 ± 2.1 m/s and 980 ± 2.1 m/s and 978.47 ± 2.1 m/s
- mass density ([1]; 313.15 K): 718.357 ± 0.59 kg/m3 and 719.245 ± 0.59 kg/m3
- speed of sound ([1]; 313.15 K): 968.16 ± 2.1 m/s and 968.63 ± 2.1 m/s and 967.03 ± 2.1 m/s
- mass density ([1]; 315.65 K): 715.636 ± 0.6 kg/m3 and 716.525 ± 0.59 kg/m3
- speed of sound ([1]; 315.65 K): 956.8 ± 2.1 m/s and 957.31 ± 2.1 m/s and 955.73 ± 2.1 m/s
- mass density ([1]; 318.15 K): 712.897 ± 0.6 kg/m3 and 713.786 ± 0.6 kg/m3
- speed of sound ([1]; 318.15 K): 945.54 ± 2.1 m/s and 946.03 ± 2.1 m/s and 944.34 ± 2.1 m/s
- mass density ([1]; 320.65 K): 710.141 ± 0.6 kg/m3 and 711.028 ± 0.6 kg/m3
- speed of sound ([1]; 320.65 K): 934.24 ± 2.1 m/s and 934.76 ± 2.1 m/s and 933.01 ± 2.1 m/s
- mass density ([1]; 323.15 K): 707.381 ± 0.61 kg/m3 and 708.28 ± 0.61 kg/m3
- speed of sound ([1]; 323.15 K): 922.97 ± 2.1 m/s and 923.46 ± 2.1 m/s and 921.93 ± 2.1 m/s

SMILES: COC(C)(C)C [2-methoxy-2-methylpropane] + CCc1ccccc1
- speed of sound ([2]; 288.15 K): 1083.4 ± 2.1 m/s
- mass density ([2]; 288.15 K): 744.861 ± 0.55 kg/m3
- speed of sound ([2]; 290.65 K): 1071.6 ± 2.1 m/s
- mass density ([2]; 290.65 K): 742.259 ± 0.56 kg/m3
- speed of sound ([2]; 293.15 K): 1060 ± 2.1 m/s
- mass density ([2]; 293.15 K): 739.654 ± 0.56 kg/m3
- speed of sound ([2]; 295.65 K): 1048.5 ± 2.1 m/s
- mass density ([2]; 295.65 K): 737.036 ± 0.56 kg/m3
- speed of sound ([2]; 298.15 K): 1036.9 ± 2.1 m/s
- mass density ([2]; 298.15 K): 734.406 ± 0.57 kg/m3
- speed of sound ([2]; 300.65 K): 1025.4 ± 2.1 m/s
- mass density ([2]; 300.65 K): 731.766 ± 0.57 kg/m3
- speed of sound ([2]; 303.15 K): 1013.9 ± 2.1 m/s
- mass density ([2]; 303.15 K): 729.112 ± 0.58 kg/m3
- speed of sound ([2]; 305.65 K): 1002.4 ± 2.1 m/s
- mass density ([2]; 305.65 K): 726.444 ± 0.58 kg/m3
- speed of sound ([2]; 308.15 K): 990.99 ± 2.1 m/s
- mass density ([2]; 308.15 K): 723.763 ± 0.58 kg/m3
- speed of sound ([2]; 310.65 K): 979.62 ± 2.1 m/s
- mass density ([2]; 310.65 K): 721.069 ± 0.59 kg/m3
- speed of sound ([2]; 313.15 K): 968.16 ± 2.1 m/s
- mass density ([2]; 313.15 K): 718.357 ± 0.59 kg/m3
- speed of sound ([2]; 315.65 K): 956.8 ± 2.1 m/s
- mass density ([2]; 315.65 K): 715.636 ± 0.6 kg/m3
- speed of sound ([2]; 318.15 K): 945.54 ± 2.1 m/s
- mass density ([2]; 318.15 K): 712.897 ± 0.6 kg/m3
- speed of sound ([2]; 320.65 K): 934.24 ± 2.1 m/s
- mass density ([2]; 320.65 K): 710.141 ± 0.6 kg/m3
- speed of sound ([2]; 323.15 K): 922.97 ± 2.1 m/s
- mass density ([2]; 323.15 K): 707.381 ± 0.61 kg/m3
